From ChEMBL document CHEMBL4732252, “Generating Selective Leads for Mer Kinase Inhibitors-Example of a Comprehensive Lead-Generation Strategy” (J Med Chem, 2021)
Values after ≈ are worked out from the molar mass of the structure shown.

Key:
[1] = target: T1, Tyrosine-protein kinase Mer (Homo sapiens, UniProt Q12866); test: Inhibition of 6His/thrombin cleavage site-fused Avi-tagged dephosphorylated MER (unknown origin) (R528 to M999 residues) using Axltide (CKKSRGDYMTMQJG-acid) peptide as substrate preincubated for 30 mins followed by substrate and ATP addition at Km concentration measured after 120 mins by RapidFire LC-MS analysis
T1 sequence (Q12866 whole entry): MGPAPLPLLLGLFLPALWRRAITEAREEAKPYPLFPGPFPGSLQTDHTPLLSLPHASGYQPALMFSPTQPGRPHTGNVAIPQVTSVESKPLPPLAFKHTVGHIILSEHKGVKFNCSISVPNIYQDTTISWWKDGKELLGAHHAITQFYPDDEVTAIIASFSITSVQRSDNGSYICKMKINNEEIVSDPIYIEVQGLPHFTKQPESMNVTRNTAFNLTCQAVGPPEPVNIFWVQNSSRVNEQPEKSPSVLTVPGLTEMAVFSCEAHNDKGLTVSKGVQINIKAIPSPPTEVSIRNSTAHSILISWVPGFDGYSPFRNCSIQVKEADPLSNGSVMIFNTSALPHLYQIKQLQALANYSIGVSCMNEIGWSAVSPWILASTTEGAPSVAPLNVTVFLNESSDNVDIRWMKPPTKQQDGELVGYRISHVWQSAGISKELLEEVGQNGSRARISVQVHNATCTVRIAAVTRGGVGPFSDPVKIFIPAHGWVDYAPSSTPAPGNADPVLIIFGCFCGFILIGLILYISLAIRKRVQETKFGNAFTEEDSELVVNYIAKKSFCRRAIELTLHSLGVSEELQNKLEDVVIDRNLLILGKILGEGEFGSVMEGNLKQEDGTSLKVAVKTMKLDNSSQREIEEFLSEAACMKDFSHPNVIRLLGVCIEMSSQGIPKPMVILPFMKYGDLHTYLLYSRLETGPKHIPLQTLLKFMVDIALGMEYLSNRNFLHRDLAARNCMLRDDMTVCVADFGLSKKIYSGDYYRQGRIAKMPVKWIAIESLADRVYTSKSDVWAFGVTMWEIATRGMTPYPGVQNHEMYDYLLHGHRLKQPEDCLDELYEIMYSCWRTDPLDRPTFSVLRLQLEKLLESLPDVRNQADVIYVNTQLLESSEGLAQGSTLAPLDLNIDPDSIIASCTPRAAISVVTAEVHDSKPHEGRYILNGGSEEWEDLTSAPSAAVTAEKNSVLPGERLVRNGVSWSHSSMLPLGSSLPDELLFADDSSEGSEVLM

[2] = Aqueous solubility of the compound; type: physicochemical
[3] = target: T2, Tyrosine-protein kinase receptor UFO (Homo sapiens, UniProt P30530); test: Inhibition of GST-tagged AXL (unknown origin) ([…] residues) using Axltide (CKKSRGDYMTMQJG-acid) peptide as substrate preincubated for 30 mins followed by substrate and ATP addition at Km concentration measured after 180 mins by RapidFire LC-MS analysis
T2 sequence (P30530 whole entry): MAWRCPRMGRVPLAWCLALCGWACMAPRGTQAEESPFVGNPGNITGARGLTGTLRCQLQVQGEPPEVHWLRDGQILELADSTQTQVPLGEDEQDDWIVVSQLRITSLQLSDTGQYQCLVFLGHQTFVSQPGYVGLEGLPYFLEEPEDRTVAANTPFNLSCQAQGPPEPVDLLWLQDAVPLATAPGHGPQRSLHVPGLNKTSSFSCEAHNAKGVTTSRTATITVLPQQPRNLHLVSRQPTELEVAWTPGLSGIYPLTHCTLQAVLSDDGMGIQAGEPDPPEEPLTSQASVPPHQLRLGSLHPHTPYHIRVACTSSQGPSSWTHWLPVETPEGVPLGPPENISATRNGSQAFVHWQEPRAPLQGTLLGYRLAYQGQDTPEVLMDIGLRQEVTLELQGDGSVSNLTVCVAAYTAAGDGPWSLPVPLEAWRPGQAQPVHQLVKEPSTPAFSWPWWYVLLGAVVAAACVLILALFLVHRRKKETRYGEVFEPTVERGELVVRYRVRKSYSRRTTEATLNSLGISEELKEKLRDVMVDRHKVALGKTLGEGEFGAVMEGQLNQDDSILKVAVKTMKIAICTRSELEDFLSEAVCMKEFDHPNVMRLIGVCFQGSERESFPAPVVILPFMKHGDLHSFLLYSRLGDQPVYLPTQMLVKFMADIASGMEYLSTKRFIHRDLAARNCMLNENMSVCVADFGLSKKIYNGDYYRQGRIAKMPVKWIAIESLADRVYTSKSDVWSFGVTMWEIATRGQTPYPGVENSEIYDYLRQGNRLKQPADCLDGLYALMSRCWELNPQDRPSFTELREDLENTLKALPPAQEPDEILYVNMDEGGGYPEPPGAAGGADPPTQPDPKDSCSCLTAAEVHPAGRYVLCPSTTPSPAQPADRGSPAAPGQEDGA

[4] = Distribution coefficient, logD of compound at pH 7.4; type: physicochemical; details: octanol/water

IC50 [1] [µM] | solubility [2] [µM] | IC50 [3] [µM] | logD [4] | SMILES
0.794 | 301 (≈ 123 µg/mL) | > 100 | 2.6 | CN(Cc1ccc2nccn2c1)c1nnc(-c2ncc(C(F)(F)F)cc2Cl)o1
0.631 | 23 (≈ 8.34 µg/mL) | 15.8 | 3.2 | Cc1cc(N(C)C)ccc1-c1nnc(N(C)Cc2ccc3nccn3c2)o1
0.1 | 33 (≈ 12.9 µg/mL) | 3.98 | 4.1 | CN(Cc1ccc2nccn2c1)c1nnc(-c2ccc(OC3CCCC3)cc2)o1
0.0251 | 2 (≈ 0.998 µg/mL) | 0.01 | 4 | CNC(=O)c1sc(N2CC3CC2(CNC(=O)c2c[nH]c4ncc(Cl)cc24)C3)nc1C(F)(F)F
0.0631 | < 1.6 | 0.0251 | 4.2 | CNC(=O)c1sc(N2CC3CC2(CNC(=O)c2c[nH]c4ncc(C(F)(F)F)cc24)C3)nc1C(F)(F)F
0.00158 | 0.01 (≈ 0.00552 µg/mL) | 0.00316 | > 5 | Cc1c(C(=O)Nc2ccc(Oc3ccnc4[nH]cc(-c5ccccc5)c34)c(F)c2)c(=O)n(-c2ccc(F)cc2)n1C
0.00501 | < 0.2 | 0.0158 | 4.2 | CNC(=O)C[C@@H](NC(=O)[C@@H](CCc1ccccc1)NC(=O)c1c(C)noc1-c1snnc1C)c1ccc(C(F)(F)F)cc1
0.0251 | 0.1 (≈ 0.0432 µg/mL) | 0.398 | > 5.6 | CN(Cc1ccc2c(c1)CCCO2)c1nnc(-c2ccc(-c3ccccc3Cl)cc2)o1
0.00501 | 1.1 (≈ 0.457 µg/mL) | 0.398 | 4.8 | CN(Cc1ccc2nccn2c1)c1nnc(-c2ccc(-c3ccccc3Cl)cc2)o1
0.0501 | 0.6 (≈ 0.297 µg/mL) | 0.2 | 4.5 | O=S(=O)(c1ccc(Nc2ncc(N3CCOCC3)c(Nc3ccccc3)n2)cc1)N1CCCCC1
0.0126 | < 1.6 | 0.00398 | 3.5 | CNC(=O)c1sc(N2CC3CC2(CNC(=O)c2c[nH]c4ncc(C)cc24)C3)nc1C(F)(F)F
0.126 | 10 (≈ 4.17 µg/mL) | 3.16 | 3.3 | CN(Cc1ccc2nccn2c1)c1nnc(-c2ccc(-c3ccccc3Cl)nc2)o1
0.631 | 120 (≈ 44.8 µg/mL) | 39.8 | 3 | CCn1c(-c2nnc(N(C)Cc3ccc4nccn4c3)o2)nc2ccccc21
0.0501 | 4 (≈ 1.44 µg/mL) | 1.58 | 4.4 | CNc1nc(OCC2CCC2)nc2c1ncn2Cc1c(F)cccc1F
0.0251 | < 1.6 | 0.01 | 3.1 | CNC(=O)c1sc(N2CC3CC2(CNC(=O)c2c[nH]c4ncccc24)C3)nc1C(F)(F)F
0.0501 | 400 (≈ 190 µg/mL) | 1.58 | 3.2 | C[C@@H]1CN(c2cnc(Nc3cc(F)c(OCC4CC4)c(F)c3)nc2NC2CCOCC2)CCN1
0.251 | 260 (≈ 117 µg/mL) | 3.16 | 1.4 | COc1cc2ncnc(Nc3cnc(OCCC4CC4)nc3)c2cc1OCC1CCNCC1
